In patent publication US20130261024A1, “System for Identifying Connections Between Perturbagens and Genes Associated with a Skin Hyperpigmentation Condition” (THE PROCTER & GAMBLE COMPANY, priority 2012, published 2013):

Legend:
[1] = tested on: tert-Keratinocyte (tKC) cells; test: C-map query with the composite "skin tone" benchmark signature (Niacinamide, Sepiwhite, NAG, Hexamidine); type: cell-based, human; settings: composite signature of Example 3
Method: (§1) Individual experiments (referred to as batches) generally comprise 30 to 96 samples analyzed using Affymetrix GeneChip® technology platforms, containing 6 replicates of the vehicle control (e.g., DSMO), 2 replicate samples of a positive control that gives a strong reproducible effect in the cell type used, and samples of the test material/perturbagen. Replication of the test material is done in separate batches due to batch effects. In vitro testing was performed in 6-well plates to provide sufficient RNA for GeneChip® analysis (2-4 μg total RNA yield/well).
Human telomerized keratinocytes (tKC) were obtained from the University of Texas, Southwestern Medical Center, Dallas, Tex. tKC cells were grown in EpiLife® media with 1× Human Keratinocyte Growth Supplement (Invitrogen, Carlsbad, Calif.) on collagen I coated cell culture flasks and plates (Becton Dickinson, Franklin Lakes, N.J.). Keratinocytes were seeded into 6-well plates at 20,000 cells/cm^2 24 hours before chemical exposure. Human skin fibroblasts (BJ cell line from ATCC, Manassas, Va.) were grown in Eagle's Minimal Essential Medium (ATCC) supplemented with 10% fetal bovine serum (HyClone, Logan, Utah) in normal cell culture flasks and plates (Corning, Lowell, Mass.). BJ fibroblasts were seeded into 6-well plates at 12,000 cells/cm^2 24 hours before chemical exposure. […]

hyperpigmented spots = test: 9-week randomized, double-blind, vehicle-controlled, split-face tone benefit clinical study; type: in vivo, Chinese females; settings: 0.05% in SC-99 vehicle
Source text: This Example provides evidence of the advantages of using composite signatures and illustrates clinical affirmation of the C-map model for predicting efficacy of skin-lightening agents. This Example supports embodiments related to composite signatures (as described at the end of Example 3). An illustrative “Skin Tone” Signature developed from a genomics study using a composite skin-lightening benchmark agent signature is derived from Niacinamide, Hexamidine, Sepiwhite, and NAG. The signature is used to query C-map and generate a list of potential skin-lightening agents. A top hit, Chlorhexidine Diactate (CD) is entered into clinical testing for confirmation of efficacy. The control for clinical efficacy is a 5% Niacinamide+1% Sepiwhite formulation in the control vehicle.
Primary endpoints are changes in color spot area fraction (image analysis) and melanin spot area fraction (NC2) from baseline. Secondary endpoints are changes from baseline in L*a*b (color image analysis), mean melanin gray scale (NC2), and melanin evenness (NC2). Texture area fraction and pore area fraction are also evaluated to explore impact on other aspects relating to overall skin tone. […] Statistically significant superiority to the high efficacy benchmark skin active agent to vehicle performance is the clinical success criteria.
Study Design: The experimental protocol included a 9-week (1-week preconditioning & 8-week treatment), randomized, double-blind, round robin, vehicle-controlled, split-face tone benefit study. The subject population included 330 Chinese females, 25-55 years old with hyperpigmented spots. 318 subjects completed the entire study. […] Olay Complete SPF 15 UV Moisturizing Lotion is concomitantly used during pre-conditioning and treatment. 0.5 g each test product per half-face (forehead to jaw line; ˜4 mg/cm^2) is dosed 2× a day (morning/evening). Color SAF and treatment area, Melanin SAF, gray scale, evenness by NC2, and additional measurement of Fine Lines and Wrinkle and Texture are by REAL 3.01A. Data collection points include baseline, and ends of weeks 4, 6 and 8. The tested hypothesis is that there is no difference in clinical endpoint versus the benchmark composition treatment. Study site is Kuntai Clinical Center, Beijing, China and study time frame is February 2010 (pre-conditioning) to April 2010.

[2] = tested on: teleomerized human keratinocytes (tKC); test: C-map query with the Retinoic Acid/Keratinocyte 200 benchmark signature; type: cell-based; settings: Retinoic Acid Keratinocyte RA-200 signature
Method: as §1
Human telomerized keratinocytes (tKC) were obtained from the University of Texas, Southwestern Medical Center, Dallas, Tex. tKC cells were grown in EpiLife® media with 1× Human Keratinocyte Growth Supplement (Invitrogen, Carlsbad, Calif.) on collagen I coated cell culture flasks and plates (Becton Dickinson, Franklin Lakes, N.J.). Keratinocytes were seeded into 6-well plates at 20,000 cells/cm^2 24 hours before chemical exposure. […]
(a) Tert-keratinocytes (tKC) RA Signatures. […] Cells were treated with 1 uM tRA for 6 hr, tested in triplicate, with triplicate DMSO controls, and analyzed on HG-U133A GeneChips. […]

| SMILES | connectivity to tone composite benchmark signature query [1] | Pore area fraction (hyperpigmented spots; compared to vehicle, week 8) | Texture area fraction (hyperpigmented spots; compared to vehicle, week 8) | spot area fraction color test (hyperpigmented spots; compared to vehicle, week 8) | spot area fraction NC2 test (hyperpigmented spots; compared to vehicle, weeks 6 and 8) | Basal skin tone (hyperpigmented spots; versus vehicle, week 8) | NC2 Melanin evenness test (hyperpigmented spots; versus vehicle, weeks 6 and 8) | average C-map score [2] |
| --- | --- | --- | --- | --- | --- | --- | --- | --- |
| CC(=O)O.CC(=O)O.NC(=N\CCCCCC/N=C(N)/N=C(\N)Nc1ccc(Cl)cc1)/N=C(\N)Nc1ccc(Cl)cc1 [CD, Chlorhexidine Diacetate] | top connectivity hit | superior efficacy | superior efficacy | significantly fewer spots | significantly reduced fraction | superiority | superiority to the vehicle |  |
| CC1=C(/C=C/C(C)=C/C=C/C(C)=C/C(=O)O)C(C)(C)CCC1 [Retinoic acid, all-trans-retinoic acid] |  |  |  |  |  |  |  | highest score of the materials tested |
